Key:
[1] = system: human lung cancer strain NCI-H441; type: cell-based
Procedure, shortened: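 Readout: […] after the ATP-based reagent. Compound: serial dilutions in dimethyl sulfoxide.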

[2] = biological target: HRAS wild-type protein (Homo sapiens, UniProt P01112); assay: Binding to HRAS by surface plasmon resonance (SPR), KD and KD ratio to KRAS; settings: ratio of the KD value with respect to HRAS wild-type protein to the KD value with respect to KRAS
Procedure, shortened: (§1)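 GDP-bound biotin-Avi RAS captured at ~100–300 RU, 30°C, pH 7.4 HBS containing 10 µM GDP, 10 mM MgCl2, 1 mM DTT, 0.01% Tween 20 and 4% DMSO. KD by 1:1 fitting.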

[3] = biological target: GDP-bound NRAS wild-type protein (Homo sapiens, UniProt P01111); assay: Binding to NRAS by surface plasmon resonance (SPR), KD and KD ratio to KRAS; settings: ratio of the KD value with respect to GDP-bound NRAS wild-type protein to the KD value with respect to KRAS
Chain of GDP-bound NRAS wild-type protein (P01111 whole entry): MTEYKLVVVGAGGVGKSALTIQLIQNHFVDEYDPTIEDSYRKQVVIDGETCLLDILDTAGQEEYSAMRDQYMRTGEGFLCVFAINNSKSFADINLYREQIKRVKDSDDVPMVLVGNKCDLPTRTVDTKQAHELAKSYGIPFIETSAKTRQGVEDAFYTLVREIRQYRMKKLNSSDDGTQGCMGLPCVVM
Procedure, shortened: as §1

Chain of HRAS wild-type protein (P01112 whole entry): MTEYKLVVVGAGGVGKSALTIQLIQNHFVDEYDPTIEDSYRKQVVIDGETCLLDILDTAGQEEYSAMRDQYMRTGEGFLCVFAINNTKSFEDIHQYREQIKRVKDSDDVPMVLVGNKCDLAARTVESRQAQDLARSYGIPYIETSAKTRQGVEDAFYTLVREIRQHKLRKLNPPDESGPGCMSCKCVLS

Structure (SMILES) | IC50 [1] [µM] | HRAS /KRAS [2] | NRAS /KRAS [3]
C#CC[C@H]1C(=O)N[C@@H]([C@@H](C)CC)C(=O)N(C)CC(=O)N(C)[C@H]2C/C=C\CCN(C2=O)[C@@H](Cc2ccc(C(F)(F)F)cc2)C(=O)N(C)CC(=O)N[C@@H](CCc2ccc(C(F)(F)F)c(OC)c2)C(=O)N2C[C@H](OCC)C[C@H]2C(=O)NC2(CCC2)C(=O)N(C)[C@@H](C2CCCC2)C(=O)N(C)[C@H](C(=O)N(C)CCC)CC(=O)N1C [PP2059] | 0.0049 | A (a compound having 10 or more and less than 20 is denoted as A) | A (a compound having 10 or more and less than 20 is denoted as A)
C#CC[C@H]1C(=O)N[C@@H]([C@@H](C)CC)C(=O)N(C)CC(=O)N(C)[C@H]2C/C=C\CCN(C2=O)[C@@H](Cc2ccc(C(F)(F)F)cc2)C(=O)N(C)CC(=O)N[C@@H](CCc2ccc(C(F)(F)F)c(OC)c2)C(=O)N2C[C@@H](C)C[C@H]2C(=O)NC2(CCC2)C(=O)N(C)[C@@H](C2CCCC2)C(=O)N(C)[C@H](C(=O)N(C)CC)CC(=O)N1C [PP2061] | 0.0061 | A (a compound having 10 or more and less than 20 is denoted as A) | AA (a compound having 20 or more is denoted as AA)
CCO[C@@H]1C[C@H]2C(=O)NC3(CC(C)(C)C3)C(=O)N(C)[C@@H](C(CC)CC)C(=O)N(C)[C@H](C(=O)N(C)C)CC(=O)N(C)[C@@H](CC)C(=O)N[C@@H]([C@@H](C)CC)C(=O)N(C)CC(=O)N(C)[C@H]3C/C=C\CCN(C3=O)[C@@H](Cc3ccc(C(F)(F)F)cc3)C(=O)N(C)CC(=O)N[C@@H](CCc3cc(F)c(C(F)(F)F)c(F)c3)C(=O)N2C1 [PP2062] | 0.0137 | A (a compound having 10 or more and less than 20 is denoted as A) | AA (a compound having 20 or more is denoted as AA)
CC[C@H](C)[C@@H]1NC(=O)[C@H](C(C)C)N(C)C(=O)C[C@@H](C(=O)N(C)CC)N(C)C(=O)[C@H](C2CCCC2)N(C)C(=O)C2(CCC2)NC(=O)[C@@H]2C[C@H](C)CN2C(=O)[C@H](CCc2ccc(C(F)(F)F)c(OC)c2)NC(=O)CN(C)C(=O)[C@H](Cc2ccc(C(F)(F)F)cc2)N2CC/C=C\C[C@@H](C2=O)N(C)C(=O)CN(C)C1=O [PP2065] | 0.017 | B (a compound having 3 or more and less than 10 is denoted as B) | A (a compound having 10 or more and less than 20 is denoted as A)
CCO[C@@H]1C[C@H]2C(=O)NC3(CC(C)(C)C3)C(=O)N(C)[C@@H](C(CC)CC)C(=O)N(C)[C@H](C(=O)N(C)C)CC(=O)N(C)[C@@H](CC)C(=O)N[C@@H]([C@@H](C)CC)C(=O)N(C)CC(=O)N(C)[C@H]3C/C=C\CCN(C3=O)[C@@H](Cc3ccc(C(F)(F)F)cc3)C(=O)N(C)CC(=O)N[C@@H](CCc3ccc(C(F)(F)F)c(OC)c3)C(=O)N2C1 [PP2066] | 0.0032 | B (a compound having 3 or more and less than 10 is denoted as B) | A (a compound having 10 or more and less than 20 is denoted as A)
CCCN(C)C(=O)[C@@H]1CC(=O)N(C)[C@@H](C(C)C)C(=O)N[C@@H]([C@@H](C)CC)C(=O)N(C)CC(=O)N(C)[C@H]2C/C=C\CCN(C2=O)[C@@H](Cc2ccc(C(F)(F)F)cc2)C(=O)N(C)CC(=O)N[C@@H](CCc2ccc(C(F)(F)F)c(OC)c2)C(=O)N2C[C@@H](C)C[C@H]2C(=O)NC2(CCC2)C(=O)N(C)[C@@H](C2CCCC2)C(=O)N1C [PP2067] | 0.0177 | A (a compound having 10 or more and less than 20 is denoted as A) | AA (a compound having 20 or more is denoted as AA)
CCC[C@H]1C(=O)N[C@@H]([C@@H](C)CC)C(=O)N(C)CC(=O)N(C)[C@H]2C/C=C\CCN(C2=O)[C@@H](Cc2ccc(C)cc2)C(=O)N(C)CC(=O)N[C@@H](CCc2ccc(C(F)(F)F)c(OC)c2)C(=O)N2C[C@H](OCC)C[C@H]2C(=O)NC2(CC(C)(C)C2)C(=O)N(C)[C@@H](C(CC)CC)C(=O)N(C)[C@H](C(=O)N(C)C)CC(=O)N1C [PP2068] | 0.0111 | B (a compound having 3 or more and less than 10 is denoted as B) | A (a compound having 10 or more and less than 20 is denoted as A)
CC[C@H](C)[C@@H]1NC(=O)[C@H](C2CC2)N(C)C(=O)C[C@@H](C(=O)N(C)CC)N(C)C(=O)[C@H](C2CCCC2)N(C)C(=O)C2(CCC2)NC(=O)[C@@H]2C[C@H](C)CN2C(=O)[C@H](CCc2ccc(C(F)(F)F)c(OC)c2)NC(=O)CN(C)C(=O)[C@H](Cc2ccc(C(F)(F)F)cc2)N2CC/C=C\C[C@@H](C2=O)N(C)C(=O)CN(C)C1=O [PP2069] | 0.0274 | A (a compound having 10 or more and less than 20 is denoted as A) | AA (a compound having 20 or more is denoted as AA)
CCCN(C)C(=O)[C@@H]1CC(=O)N(C)[C@@H](C2CC2)C(=O)N[C@@H]([C@@H](C)CC)C(=O)N(C)CC(=O)N(C)[C@H]2C/C=C\CCN(C2=O)[C@@H](Cc2ccc(C(F)(F)F)cc2)C(=O)N(C)CC(=O)N[C@@H](CCc2ccc(C(F)(F)F)c(OC)c2)C(=O)N2C[C@@H](C)C[C@H]2C(=O)NC2(CCC2)C(=O)N(C)[C@@H](C2CCCC2)C(=O)N1C [PP2070] | 0.0113 | A (a compound having 10 or more and less than 20 is denoted as A) | A (a compound having 10 or more and less than 20 is denoted as A)
CC[C@H](C)[C@@H]1NC(=O)[C@H](C2CCC2)N(C)C(=O)C[C@@H](C(=O)N(C)CC)N(C)C(=O)[C@H](C2CCCC2)N(C)C(=O)C2(CCC2)NC(=O)[C@@H]2C[C@H](C)CN2C(=O)[C@H](CCc2ccc(C(F)(F)F)c(OC)c2)NC(=O)CN(C)C(=O)[C@H](Cc2ccc(C(F)(F)F)cc2)N2CC/C=C\C[C@@H](C2=O)N(C)C(=O)CN(C)C1=O [PP2071] | 0.0062 | A (a compound having 10 or more and less than 20 is denoted as A) | A (a compound having 10 or more and less than 20 is denoted as A)
CCCN(C)C(=O)[C@@H]1CC(=O)N(C)[C@@H](C2CCC2)C(=O)N[C@@H]([C@@H](C)CC)C(=O)N(C)CC(=O)N(C)[C@H]2C/C=C\CCN(C2=O)[C@@H](Cc2ccc(C(F)(F)F)cc2)C(=O)N(C)CC(=O)N[C@@H](CCc2ccc(C(F)(F)F)c(OC)c2)C(=O)N2C[C@@H](C)C[C@H]2C(=O)NC2(CCC2)C(=O)N(C)[C@@H](C2CCCC2)C(=O)N1C [PP2072] | 0.0085 | A (a compound having 10 or more and less than 20 is denoted as A) | A (a compound having 10 or more and less than 20 is denoted as A)
C#CC[C@H]1C(=O)N[C@@H]([C@@H](C)CC)C(=O)N(C)CC(=O)N(C)[C@H]2C/C=C\CCN(C2=O)[C@@H](Cc2ccc(C(F)(F)F)cc2)C(=O)N(C)CC(=O)N[C@@H](CCc2cc(F)c(C(F)(F)F)c(F)c2)C(=O)N2C[C@H](OCC)C[C@H]2C(=O)NC2(CC(C)(C)C2)C(=O)N(C)[C@@H](C2CCCC2)C(=O)N(C)[C@H](C(=O)N(C)CC)CC(=O)N1C [PP2073] | 0.0035 | A (a compound having 10 or more and less than 20 is denoted as A) | A (a compound having 10 or more and less than 20 is denoted as A)
C#CC[C@H]1C(=O)N[C@@H]([C@@H](C)CC)C(=O)N(C)CC(=O)N(C)[C@H]2C/C=C\CCN(C2=O)[C@@H](Cc2ccc(C(F)(F)F)cc2)C(=O)N(C)CC(=O)N[C@@H](CCc2cc(F)c(C(F)(F)F)c(F)c2)C(=O)N2C[C@H](OCC)C[C@H]2C(=O)NC2(CC(C)(C)C2)C(=O)N(C)[C@@H](C2CCCC2)C(=O)N(C)[C@H](C(=O)N(C)CCC)CC(=O)N1C [PP2074] | 0.0059 | A (a compound having 10 or more and less than 20 is denoted as A) | A (a compound having 10 or more and less than 20 is denoted as A)
C#CC[C@H]1C(=O)N[C@@H]([C@@H](C)CC)C(=O)N(C)CC(=O)N(C)[C@H]2C/C=C\CCN(C2=O)[C@@H](Cc2ccc(C(F)(F)F)cc2)C(=O)N(C)CC(=O)N[C@@H](CCc2cc(F)c(C(F)(F)F)c(F)c2)C(=O)N2C[C@@H](C)C[C@H]2C(=O)NC2(CC(C)(C)C2)C(=O)N(C)[C@@H](C2CCCC2)C(=O)N(C)[C@H](C(=O)N(C)CC)CC(=O)N1C [PP2075] | 0.0118 | A (a compound having 10 or more and less than 20 is denoted as A) | A (a compound having 10 or more and less than 20 is denoted as A)
C#CC[C@H]1C(=O)N[C@@H]([C@@H](C)CC)C(=O)N(C)CC(=O)N(C)[C@H]2C/C=C\CCN(C2=O)[C@@H](Cc2ccc(C(F)(F)F)cc2)C(=O)N(C)CC(=O)N[C@@H](CCc2cc(F)c(C(F)(F)F)c(F)c2)C(=O)N2C[C@@H](C)C[C@H]2C(=O)NC2(CC(C)(C)C2)C(=O)N(C)[C@@H](C2CCCC2)C(=O)N(C)[C@H](C(=O)N(C)CCC)CC(=O)N1C [PP2076] | 0.0156 | A (a compound having 10 or more and less than 20 is denoted as A) | A (a compound having 10 or more and less than 20 is denoted as A)

Reference: patent publication EP4603105A1, “PHARMACEUTICAL COMPOSITION CONTAINING CYCLIC COMPOUND HAVING SELECTIVE KRAS INHIBITORY EFFECT AGAINST HRAS AND NRAS” (CHUGAI SEIYAKU KABUSHIKI KAISHA, priority 2022, dated 2024)
